The source of these data is patent US8476449B2, “Radioactive iodine labeled organic compound or salt thereof” (Nihon Medi-Physics Co., Ltd., priority 2010, dated 2013).

The target of one experiment is T1, Aβ42 aggregate (Homo sapiens, UniProt P05067).
T1 construct: Aβ (1-42) peptide; purchased Peptide Institute, Inc
Nature of the experiment: Inhibition constant toward Aβ42 aggregate (thioflavin S competition). The format is binding. The conditions noted are these: thioflavin S as ligand, read-out: Ki values (Aβ42 in Table 5). How it is done: (§1) First, the dissociation constant (Kd) of thioflavin S used as a competitive ligand was first determined by a saturation experiment in order to calculate inhibition constants of compounds 1 to 3. That is, a mixed solution of a 10 vol % ethanol aqueous solution of thioflavin S (0.1-12.8 μmol/L) and the tau protein aggregate (final concentration 0.2 μmol/L, prepared in Example 9) or the Aβ42 aggregate (final concentration 2.2 μmol/L, prepared in Example 11) was incubated for 30 minutes, and the fluorescence intensity was measured using a fluorescence plate reader (FLEX STATION, Molecular Devices). The fluorescence intensity was measured at Ex 440 nm and Em 510 nm for the tau protein aggregate and Ex 440 nm and Em 490 nm for the Aβ42 aggregate. A saturation curve was prepared using GraphPad Prism, and the Kd value for thioflavin S was calculated.
(§2) Next, a mixed solution of a 10 volt ethanol aqueous solution of thioflavin S (1.5 μmol/L) and a test compound (0.6 nmol/L to 10 μmol/L) together with the tau protein aggregate (final concentration 0.2 μmol/L, prepared in Example 9) or the Aβ42 aggregate (final concentration 10 μg/ml, prepared in Example 11) was incubated for 30 minutes. Then, the fluorescence intensities at Ex 440 nm and Em 510 nm for the tau protein aggregate and Ex 440 nm and Em 490 nm for the Aβ42 aggregate were measured using a fluorescence plate reader (FLEX STATION, Molecular Devices). GraphPad Prism inhibition curves were prepared, and Ki values of compounds 1 to 3 were determined using the above obtained Kd value of thioflavin S.

Experiment [1] concerns human brain neurofibrillary tangles. Description: Fluorescent staining of Alzheimer's disease patient brain slice (binding to human brain neurofibrillary tangles). To be noted: 200 μmol/L, 1 hour. How it is done: A fluorescent staining experiment with compound 3 using an Alzheimer's disease patient brain slice was carried out in order to evaluate binding to human brain neurofibrillary tangles. A postmortem brain slice (paraffin-embedded slice) of an Alzheimer's disease patient purchased from BioChain was washed with xylene (5 minutes×twice), ethanol, ethanol, a 95 vol % ethanol aqueous solution, an 85 volt ethanol aqueous solution, and a 70 vol % ethanol aqueous solution (1 minute×once) to thus carry out deparaffinization. Subsequently, it was treated in sequence with a 0.3 wt % potassium permanganate aqueous solution (20 minutes×once), PBS (phosphoric acid buffer physiological saline) (2 minutes×twice), a 1 wt % potassium metabisulfite aqueous solution/1 wt % oxalic acid aqueous solution (1 minute×once), PBS (2 minutes×twice), a 1 wt % sodium borohydride aqueous solution (5 minutes×once), and PBS (2 minutes×twice) in order to remove self-fluorescence of the slice. Blocking using 3 wt % BSA-containing PBS/0.1 wt % tritonX100-containing PBS was carried out for 3 hours. Then, a test compound (200 μmol/L/50 vol % ethanol aqueous solution) and the slice were incubated for 1 hour. The slice was washed with 50 vol % ethanol, and examined using a fluorescence microscope. Furthermore, the same slice was stained using thioflavin S (0.125 wt %, 50 vol % ethanol aqueous solution) for 10 minutes. […]

Experiment [2] deals with T2, tau protein aggregate (Homo sapiens, UniProt P10636). Description: Competitive inhibition experiment using thioflavin S (ThS) as ligand, fluorescence spectra. The format is binding. Further details: made in house; host or cells: E. coli BL21. To be noted: tau protein aggregate 0.2 μmol/L, thioflavin S 1.5 μmol/L, compound 0.1-2.7 μmol/L, excitation 440 nm. How it is done:
Tau-441 expression vector (provided by Graduate School of Medicine, Osaka City University) was transferred to E. coli (BL21), culturing was carried out, and a tau protein was extracted and purified. Heparin (0.1 mg/mL) was added to the purified tau protein (1 mg/mL), and incubation in a 50 mmol/L MES buffer (pH 6.8, 100 mmol/L sodium chloride, 0.5 mmol/L EGTA) at 37° C. was carried out for 3 days, thus preparing an aggregate. Formation of the tau protein aggregate was confirmed by SDS-PAGE and thioflavin S fluorescence assay.
A mixed solution (550 μL) of the tau protein aggregate (final concentration […]) thus prepared, thioflavin S (Sigma Aldrich, final concentration 1.5 μmol/L), and compound 1, compound 2, or compound 3 solution at various concentrations (each having final concentrations of 0 to 2.7 μmol/L) was incubated for 30 minutes, and fluorescence spectra at an excitation wavelength of 440 nm were measured using a fluorescence spectrometer (RF-5300PC, Shimadzu Corporation).
In FIGS. 3 to 5, a is a fluorescence spectrum of a sample (sample I) containing only thioflavin S at 1.5 μmol/L, and b is a fluorescence spectrum of a sample (sample II) that is 0.2 μmol/L of the tau protein aggregate in sample I. In FIG. 3, c is a fluorescence spectrum of a sample that is 0.1 μmol/L of compound 1 in sample II, d is a fluorescence spectrum of a sample that is 0.3 μmol/L of compound 1 in sample II, e is a fluorescence spectrum of a sample that is 0.9 μmol/L of compound 1 in sample II, and f is a fluorescence spectrum of a sample that is 2.7 μmol/L of compound 1 in sample II. In FIG. 4, c is a fluorescence spectrum of a sample that is 0.1 μmol/L of compound 2 in sample II, d is a fluorescence spectrum of a sample that is 0.3 μmol/L of compound 2 in sample II, e is a fluorescence spectrum of a sample that is 0.9 μmol/L of compound 2 in sample II, and f is a fluorescence spectrum of a sample that is 2.7 μmol/L of compound 2 in sample II. […]

Experiment [3] has as its target T2, tau protein aggregate. Nature of the experiment: Inhibition constant toward tau protein aggregate (thioflavin S competition). On the set-up: made in house; host or cells: E. coli BL21. Format: binding. How it is done:
as §1, §2

T2 sequence (P10636 1-441 isoform P10636-8): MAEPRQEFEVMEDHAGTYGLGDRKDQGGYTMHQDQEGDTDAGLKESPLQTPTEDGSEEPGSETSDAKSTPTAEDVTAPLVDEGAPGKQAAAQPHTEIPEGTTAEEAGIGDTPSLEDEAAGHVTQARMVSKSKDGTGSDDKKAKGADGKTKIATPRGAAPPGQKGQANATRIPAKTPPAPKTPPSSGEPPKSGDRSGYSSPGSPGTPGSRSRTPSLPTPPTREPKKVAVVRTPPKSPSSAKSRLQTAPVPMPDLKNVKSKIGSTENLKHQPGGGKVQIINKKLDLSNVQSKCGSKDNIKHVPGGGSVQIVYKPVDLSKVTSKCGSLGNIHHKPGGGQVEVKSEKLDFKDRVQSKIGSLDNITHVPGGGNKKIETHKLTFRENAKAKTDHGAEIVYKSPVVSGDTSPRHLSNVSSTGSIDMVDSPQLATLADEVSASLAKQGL
T1 sequence (P05067 672-713 limits assumed): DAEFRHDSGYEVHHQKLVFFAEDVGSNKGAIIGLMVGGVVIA

For the compound `O=C1/C(=C/c2ccc(-c3cccc(I)c3)o2)NC(=S)N1CCc1c[nH]cn1` [Compound 3, (Z)-3-(2-(1H-imidazol-4-yl)ethyl)-5-((5-(3-iodophenyl)furan-2-yl)methylene)-2-thioxoimidazolidin-4-one], the Ki (commonly a dissociation constant, usually derived from enzyme kinetics or from competition with a known ligand) at Aβ42 aggregate stood at 469 nM; at tau protein aggregate [3] (thioflavin S as ligand, tau protein aggregate, read-out: Ki values (Tau in Table 5)) it was 64 nM. Moreover, the “Fluorescent staining of brain slice vs AT8 immunostaining” value in experiment [1] was “Prominent fluorescence accumulation”. For the same compound, the “Inhibition of binding of tau protein aggregate to thioflavin S (fluorescence spectra)” value at tau protein aggregate [2] is “inhibition of binding of a tau protein aggregate to thioflavin S”. In addition, at tau protein aggregate [3] (ratio of Ki Aβ42 aggregate to Ki tau protein aggregate), the “Ki ratios of Aβ42/Tau” value was 7.33.
